Reference: ChEMBL document CHEMBL1201862, “PubChem BioAssay data set” (2004)
Active and inactive are the calls of the source.

Tests used:
[1] = target: T1, Hepatocyte nuclear factor 4-alpha (Homo sapiens, UniProt P41235); format: functional, cell-based;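 note: biochemical luminescence-based dose-response counterscreen measuring inhibition of HNF4 dimerization, run alongside a screen for blockers of ABHD5–perilipin-5 interaction; split luciferase complementation of HNF4 fusion proteins in cell lysate measuring dimerization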
T1 sequence (P41235 whole entry): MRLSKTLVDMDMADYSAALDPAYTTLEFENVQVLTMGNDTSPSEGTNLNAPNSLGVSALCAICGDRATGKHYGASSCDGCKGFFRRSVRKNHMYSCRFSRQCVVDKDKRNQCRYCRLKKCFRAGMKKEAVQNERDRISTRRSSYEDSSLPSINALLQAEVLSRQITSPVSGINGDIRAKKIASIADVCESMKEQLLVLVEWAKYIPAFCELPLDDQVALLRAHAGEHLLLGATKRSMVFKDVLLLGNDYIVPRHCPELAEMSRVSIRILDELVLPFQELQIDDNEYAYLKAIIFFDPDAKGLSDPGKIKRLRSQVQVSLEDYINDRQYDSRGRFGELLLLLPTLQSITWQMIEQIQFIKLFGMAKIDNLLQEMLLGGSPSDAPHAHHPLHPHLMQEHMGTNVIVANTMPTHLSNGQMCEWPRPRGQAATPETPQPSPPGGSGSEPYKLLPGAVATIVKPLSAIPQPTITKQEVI

[2] = target: T2, Long-chain-fatty-acid--AMP ligase FadD28 (Mycobacterium tuberculosis, UniProt P9WQ59); test: Fluorescence polarization aasay to screen for inhibitors that compete for the binding of FadD28 to a bisubstrate Measured in Biochemical System Using Plate Reader - 2147-01_Inhibitor_Dose_CherryPick_Activity.; format: functional, Mycobacterium tuberculosis H37Rv
T2 sequence (P9WQ59 whole entry): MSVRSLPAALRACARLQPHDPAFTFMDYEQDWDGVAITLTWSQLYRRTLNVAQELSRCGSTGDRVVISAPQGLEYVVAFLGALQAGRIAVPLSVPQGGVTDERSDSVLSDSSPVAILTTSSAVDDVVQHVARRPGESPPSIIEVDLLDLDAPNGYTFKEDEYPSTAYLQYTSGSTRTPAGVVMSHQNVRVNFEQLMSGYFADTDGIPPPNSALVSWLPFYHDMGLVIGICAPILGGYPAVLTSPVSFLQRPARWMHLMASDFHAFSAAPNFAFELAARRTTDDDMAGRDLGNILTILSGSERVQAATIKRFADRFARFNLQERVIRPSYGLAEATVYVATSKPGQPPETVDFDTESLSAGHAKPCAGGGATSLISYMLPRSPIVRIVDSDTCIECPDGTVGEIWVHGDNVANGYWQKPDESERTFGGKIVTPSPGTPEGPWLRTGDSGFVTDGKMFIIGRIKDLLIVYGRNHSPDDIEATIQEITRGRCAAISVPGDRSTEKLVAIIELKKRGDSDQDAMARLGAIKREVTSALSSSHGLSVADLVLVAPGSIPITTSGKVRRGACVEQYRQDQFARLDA

cells [3] = format: functional, cell-based
[4] = bead-based luminescence quenchers, dual-tagged ARNT – biochemical, AlphaScreen, cherry-pick, artefact control for ARNT-TACC3 interaction inhibitor project, dose response (AID 651705); format: functional;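 note: AlphaScreen bead proximity signal that flags compounds interfering with the detection technology; potency reflects signal decrease which marks the compound as an assay artifact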
INS1 = test: INS-1E survival protection against cytokine death – cell-based, luminescence, retest, dose response (AID 449756); format: functional; details: Rattus norvegicus;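 note: cell death triggered by IL-1 beta plus TNF-alpha plus IFN-gamma mixture; protective hits raise ATP signal compared with cytokine alone wells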
cells [5] = format: functional, cell-based; remark: listed apart in the source
H9c2 = test: cells; format: functional, cell-based; details: Rattus norvegicus, H9c2, Myocardium;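 note: confirmatory concentration-response retest of ultra-high-throughput screening hits for modulation of myocardial damage; cell death induced by hydrogen peroxide oxidative stress; compound pretreatment for 60 min then peroxide exposure for 2 h; potency is for protecting the cells against peroxide damage rather than for killing them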
[6] = target: T3, Methionyl-tRNA synthetase, putative (Trypanosoma brucei brucei, UniProt Q38C91); format: functional, Trypanosoma brucei brucei strain 927/4 GUTat10.1
T3 sequence (Q38C91 whole entry): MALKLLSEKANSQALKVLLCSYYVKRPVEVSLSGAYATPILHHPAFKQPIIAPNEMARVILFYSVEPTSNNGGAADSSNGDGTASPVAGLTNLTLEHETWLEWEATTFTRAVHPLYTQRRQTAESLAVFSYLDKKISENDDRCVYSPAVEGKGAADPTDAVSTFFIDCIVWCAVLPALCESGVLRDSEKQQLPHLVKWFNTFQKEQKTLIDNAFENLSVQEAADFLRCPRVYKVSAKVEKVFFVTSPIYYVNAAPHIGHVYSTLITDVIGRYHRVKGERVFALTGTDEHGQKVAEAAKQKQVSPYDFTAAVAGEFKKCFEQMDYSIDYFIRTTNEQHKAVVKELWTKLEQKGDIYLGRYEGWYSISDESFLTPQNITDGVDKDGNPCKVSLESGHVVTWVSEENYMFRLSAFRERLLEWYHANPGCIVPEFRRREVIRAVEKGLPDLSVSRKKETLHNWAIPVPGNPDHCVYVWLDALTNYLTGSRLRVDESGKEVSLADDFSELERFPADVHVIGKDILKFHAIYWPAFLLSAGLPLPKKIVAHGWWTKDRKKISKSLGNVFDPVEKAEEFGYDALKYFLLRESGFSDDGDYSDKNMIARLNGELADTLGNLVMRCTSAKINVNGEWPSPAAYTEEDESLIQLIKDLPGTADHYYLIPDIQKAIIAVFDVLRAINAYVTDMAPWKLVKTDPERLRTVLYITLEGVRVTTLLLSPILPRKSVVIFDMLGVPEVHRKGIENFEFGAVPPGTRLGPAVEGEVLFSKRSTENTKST

[7] = Counterscreen for inhibitors of Trypanosoma brucei methionyl tRNA synthetase (MetRS): Luminescence-based cell-based high throughput dose response assay to identify compounds that are cytotoxic to Jurkat human T lymphocyte cells.; format: functional
[8] = target: T3, Methionyl-tRNA synthetase, putative; format: functional, Trypanosoma brucei brucei strain 927/4 GUTat10.1; remark: listed apart in the source
[9] = target: T4, DNA repair and recombination protein RAD54-like (Homo sapiens, UniProt Q92698); test: RAD54 Holliday junction migration blockers – biochemical, fluorescence, cherry-picked samples, dose series, confirmation (AID 651657); format: functional
T4 sequence (Q92698 whole entry): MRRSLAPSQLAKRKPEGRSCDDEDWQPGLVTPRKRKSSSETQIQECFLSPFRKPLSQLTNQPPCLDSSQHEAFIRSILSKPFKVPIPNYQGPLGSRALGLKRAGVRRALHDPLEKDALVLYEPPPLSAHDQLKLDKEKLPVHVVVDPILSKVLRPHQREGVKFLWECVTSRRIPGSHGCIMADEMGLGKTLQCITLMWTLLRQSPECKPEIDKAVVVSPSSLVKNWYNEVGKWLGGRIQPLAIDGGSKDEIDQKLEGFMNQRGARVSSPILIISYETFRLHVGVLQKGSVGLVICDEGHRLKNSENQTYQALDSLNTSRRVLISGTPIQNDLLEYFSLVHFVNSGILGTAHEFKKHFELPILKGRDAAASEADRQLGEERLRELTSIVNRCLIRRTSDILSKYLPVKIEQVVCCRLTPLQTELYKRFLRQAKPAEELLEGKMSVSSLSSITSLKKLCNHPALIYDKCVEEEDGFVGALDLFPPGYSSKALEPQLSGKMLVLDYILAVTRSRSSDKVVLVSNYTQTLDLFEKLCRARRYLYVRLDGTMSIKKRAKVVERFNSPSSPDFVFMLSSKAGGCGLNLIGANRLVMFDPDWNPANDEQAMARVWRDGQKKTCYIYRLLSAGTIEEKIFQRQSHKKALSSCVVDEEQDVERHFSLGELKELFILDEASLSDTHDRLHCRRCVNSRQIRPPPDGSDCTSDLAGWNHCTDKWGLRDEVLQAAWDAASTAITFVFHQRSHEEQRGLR

Major prion protein = Major prion protein (Homo sapiens, UniProt P04156); format: functional, cell-based
cells [10] = test: cells
[11] = target: T5, Microphthalmia-associated transcription factor (Homo sapiens, UniProt O75030); test: reducers of TRPM1 reporter luminescence, concentration series – cell-based, SK-MEL-5, cherry-picked, set 3, MITF inhibitor project, dose response (AID 493073); format: functional;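 note: SK-MEL-5 melanoma cells with luciferase driven by the MITF target TRPM1 promoter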
T5 sequence (O75030 whole entry): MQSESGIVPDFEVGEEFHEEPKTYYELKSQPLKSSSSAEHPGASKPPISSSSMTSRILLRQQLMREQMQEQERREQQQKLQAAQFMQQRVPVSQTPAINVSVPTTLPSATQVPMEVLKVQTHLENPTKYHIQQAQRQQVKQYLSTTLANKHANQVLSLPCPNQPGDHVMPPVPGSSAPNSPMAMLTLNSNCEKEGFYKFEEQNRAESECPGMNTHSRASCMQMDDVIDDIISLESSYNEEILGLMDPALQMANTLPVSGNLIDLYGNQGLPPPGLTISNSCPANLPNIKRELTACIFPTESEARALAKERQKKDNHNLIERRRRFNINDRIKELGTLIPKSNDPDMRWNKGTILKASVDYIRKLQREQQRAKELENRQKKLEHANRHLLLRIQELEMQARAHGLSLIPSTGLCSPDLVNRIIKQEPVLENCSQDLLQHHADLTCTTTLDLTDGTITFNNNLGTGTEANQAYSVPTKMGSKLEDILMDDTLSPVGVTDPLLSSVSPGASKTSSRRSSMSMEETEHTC

[12] = target: T6, DNA repair protein RAD52 homolog (Homo sapiens, UniProt P43351); format: functional, biochemical
T6 sequence (P43351 whole entry): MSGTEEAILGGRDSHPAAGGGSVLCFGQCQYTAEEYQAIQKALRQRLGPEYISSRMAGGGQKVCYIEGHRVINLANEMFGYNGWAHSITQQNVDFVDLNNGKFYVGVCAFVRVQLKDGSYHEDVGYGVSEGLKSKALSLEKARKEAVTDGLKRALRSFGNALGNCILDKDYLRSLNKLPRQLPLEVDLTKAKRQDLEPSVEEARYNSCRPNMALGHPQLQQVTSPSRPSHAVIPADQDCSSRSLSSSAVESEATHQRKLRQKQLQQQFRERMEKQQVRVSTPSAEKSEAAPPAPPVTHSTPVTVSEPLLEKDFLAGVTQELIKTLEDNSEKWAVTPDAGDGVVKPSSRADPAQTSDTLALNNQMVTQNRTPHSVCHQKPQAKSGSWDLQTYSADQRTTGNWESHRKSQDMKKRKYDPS

[13] = target: T7, Rac GTPase-activating protein 1 (Homo sapiens, UniProt Q9H0H5); test: blockers of MgcRacGAP-driven Rac1 GTP hydrolysis – biochemical, ADP Hunter fluorescence, primary and confirmatory, confirmation (AID 624330); format: functional
T7 sequence (Q9H0H5 whole entry): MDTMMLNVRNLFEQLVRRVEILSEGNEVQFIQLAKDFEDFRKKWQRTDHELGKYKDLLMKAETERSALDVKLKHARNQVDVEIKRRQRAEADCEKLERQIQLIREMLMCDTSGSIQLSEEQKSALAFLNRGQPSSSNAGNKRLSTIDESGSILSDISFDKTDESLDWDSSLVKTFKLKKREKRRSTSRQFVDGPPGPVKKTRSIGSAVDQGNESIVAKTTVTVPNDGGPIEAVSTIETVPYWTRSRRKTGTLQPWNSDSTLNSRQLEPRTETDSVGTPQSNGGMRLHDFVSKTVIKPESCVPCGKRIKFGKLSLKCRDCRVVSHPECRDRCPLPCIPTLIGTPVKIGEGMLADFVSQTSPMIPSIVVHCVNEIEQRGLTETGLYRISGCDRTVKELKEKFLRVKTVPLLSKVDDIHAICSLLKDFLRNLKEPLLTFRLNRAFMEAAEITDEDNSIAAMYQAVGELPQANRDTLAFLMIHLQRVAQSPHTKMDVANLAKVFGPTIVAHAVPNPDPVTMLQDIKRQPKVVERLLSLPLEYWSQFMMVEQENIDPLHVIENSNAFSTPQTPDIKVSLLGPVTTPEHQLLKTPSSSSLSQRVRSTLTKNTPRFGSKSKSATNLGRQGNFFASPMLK

[14] = Luminescence Cell-Based Dose Retest to Confirm Inhibitors of Cancer Stem Cells. [Related pubchem assays (depositor defined):AID2717, AID2721]; format: functional; details: Homo sapiens

NC(=O)C(C(=O)/C=C/c1ccc(Cl)cc1)=C1SCCS1
IC50 [1]: 12.1 µM (inactive)

COC(=O)COc1ccc(Cl)cc1C1Nc2ccccc2C(=O)N1c1ccc(OC)cc1 (centres undefined)
AC50 [2]: > 100 µM (inactive)

CCc1ccc(NC(=O)CSc2ccc(-c3ccccn3)nn2)cc1
EC50 (cells [3]): 160 µM (active) | AC50 [4]: 87 µM (active) | AC50 (INS1): 9.24 µM (active) | EC50 (cells [5]): > 350 µM (not active) | IC50 (H9c2): > 79 µM (inactive)

Cc1cccc(NS(=O)(=O)c2c(C)[nH]c(C)c2C(=O)N2CCCC2)c1
IC50 [6]: 11.8 µM (inactive) | IC50 [7]: 83.3 µM (inactive) | IC50 [8]: 35.4 µM (inactive)

OC(c1cc(F)cc(Cl)c1)c1nc(-c2ccc3ccccc3c2)c[nH]1 (centres undefined)
IC50 [6]: 2.45 µM (active) | IC50 [7]: 83.3 µM (inactive) | IC50 [8]: 1.46 µM (active)

Cc1cccn2c(=O)c3cc(C(=O)NCc4ccccc4)c(=N)n(CCCN4CCOCC4)c3nc12
AC50 [9]: 15.3 µM (active)

COC(=O)CSc1ccnc2cc(Cl)ccc12
IC50 (Major prion protein): 5.16 µM (active) | IC50 (cells [10]): > 138 µM (inactive)

CCCCCNC(=O)C(c1cc2ccccc2o1)n1c(=O)c(-c2ccco2)nc2ccccc21 (centres undefined)
IC50 [1]: 2 µM (active)

CCOc1ccc(NC(=O)CCSc2ccc3ccccc3n2)cc1
IC50 (Major prion protein): 9.01 µM (active) | IC50 (cells [10]): > 138 µM (inactive)

CCOC(=O)c1c(CN2CCCCC2)n(C)c2cc(Br)c(OC)cc12
AC50 [9]: 36.3 µM (active)

NC(=O)CSc1nc(-c2ccccc2)nc2ccccc12
IC50 (Major prion protein): 6.23 µM (active) | IC50 (cells [10]): > 138 µM (inactive)

CCN1CCN(c2ccc(Nc3ccnc4ccccc34)cc2)CC1
AC50 [9]: 12.2 µM (active) | AC50 [11]: 12.3 µM (active) | AC50 [12]: 3.19 µM (active)

Cc1cccc(OCC(=O)N/N=C\c2cn(C)c3ccccc23)c1
AC50 [2]: 14.6 µM (active)

Cc1cccc(NC(=O)CCC(=O)N/N=C/c2ccc(O)cc2O)c1
AC50 [4]: 118 µM (active) | IC50 [13]: 62.8 µM (active) | AC50 [14]: 9.74 µM (active)
